In patent US11174223B2, “Compositions, methods, and systems for the synthesis and use of imaging agents” (Lantheus Medical Imaging, Inc., priority 2010, dated 2021):

Legend:
[1] = biological target: T1, NET (Rattus norvegicus, UniProt Q63380); assay: Cell uptake selectivity with and without desipramine in PC-12 cells; type: cell-based
T1 construct: endogenous in cells; host or cells: PC-12
Method: (§1) The affinity (Ki) was determined in a competition binding assay by incubating ^19F-imaging agent-1, a cold analog of imaging agent-1, or NE with ^3H-desmethylimipramine in cell membrane overexpressing human NET. The uptake selectivity was assessed by measuring imaging agent-1 or ^3H-NE cell uptake with and without pretreatment of desipramine, a selective NET inhibitor, in SK—N—SH (human neuroblastoma) and PC-12 (rat pheochromocytoma) cells. In SK—NSH cells, the uptake kinetics (Km and Vmax) were evaluated by measuring NET mediated uptake of imaging agent-1 or NE at various concentrations. Imaging agent-1 cardiac image quality was evaluated by PET imaging (˜1.5 mCi, i.v.) in rabbits in the presence and absence of desipramine (1 mg/kg).

[2] = Tissue biodistribution by tissue sampling in rabbits; type: in vivo
Method: (§2) Imaging agent-1 was designed as a substrate for the norepinephrine transporter (NET) to image the cardiac sympathetic nervous system. […] These values were similar to that of MIBG (2.12±0.26 μM and 4.76±0.78 pmol/min/million cells). In animals, tissue biodistribution of imaging agent-1 was assessed by tissue sampling at 15- and 60-minute following administration. Heart uptake was 2.36±0.16 and 2.17±0.12% injected dose per g tissue (% ID/g) in rats and 0.25±0.03 and 0.28±0.03% ID/g in rabbits. In rabbits, desipramine (1 mg/kg) inhibited heart uptake of imaging agent-1 by 68% and ^123I-MIBG uptake by 55% at 1 hour post dose.

[3] = biological target: T2, NET (Homo sapiens, UniProt P23975); assay: Cell uptake selectivity with and without desipramine in SK-N-SH cells; type: cell-based; set-up: endogenous in cells; host or cells: SK-N-SH
Method: as §1

[4] = biological target: T3, norepinephrine transporter (NET) (Homo sapiens, UniProt P23975); assay: Uptake and uptake kinetics in SH-SY5Y human neuroblastoma cells; type: cell-based
T3 construct: endogenous in cells; host or cells: SH-SY5Y
Method: as §2

[5] = Regional myocardial radioactivity concentration by dynamic PET in normal subjects; type: in vivo, human
Method: A human study was performed that determined the quantification of normal pattern of regional myocardial radioactivity concentration of imaging agent-1.
Normal subjects (n=6) were injected with ˜220 MBq of imaging agent-1 intravenously, and dynamic PET images were acquired over 80 min without patient movement. Attenuation corrected images were re-oriented into standard cardiac specific axes, and the maximal regional myocardial uptake was quantified on a sector-by-sector basis using WLCQ software. […] Activity was expressed as Bq/ml.

[6] = Cardiac PET imaging in rabbit model of regional cardiac sympathetic denervation (RCSD) and re-innervation; type: in vivo, rabbits
Method: Rabbit models of RCSD were developed by applying phenol directly on the surface of the left ventricular wall during a sternotomy. Two and twelve weeks following the procedure, imaging agent-1 cardiac PET imaging (˜1.5 mCi, iv) were performed in these rabbits. The myocardial area with radioactivity ≥50% maximum was quantified as innervated region for comparison. To evaluate susceptibility of arrhythmia in rabbits, dofetilide (10 and 40 μg/kg iv, a delayed IKr inhibitor) induced changes were assessed by measuring ECG including heart rate (HR), QTc interval (corrected by Fridericia method), and frequency of arrhythmia.

[7] = test system: norepinephrine transporter (NET), uptake 1; assay: Heart uptake in rats after uptake 1 blockade (desipramine) or 6-hydroxydopamine sympathetic denervation; type: in vivo; details: 60 minutes post injection
Method: (§3) Desipramine, a selective uptake 1 inhibitor, was used to block cardiac uptake 1 in rats (10 mg/kg, ip), rabbits (1 mg/kg iv), and NHPs (0.5 mg/kg, iv). 6-hydroxydopamine, a neurotoxin, was injected to induce sympathetic denervation in rats (100 mg/kg ip for 7 days) and rabbits (25 mg/kg iv on day 1, 2, 7, and 8). Imaging agent-1 heart uptake in comparison with MIBG was assessed by tissue sampling at 60 minutes post imaging agent injection. Imaging was also performed with (2-tert-butyl-4-chloro-5-[4-(2-[^18F]fluoroethoxymethyl)-benzyloxy]-2H-pyridazin-3-1.

[8] = biological target: T2, NET; assay: Effect of heart failure medications on NET mediated imaging agent-1 uptake in SK-N-SH cells; type: cell-based; set-up: endogenous in cells; host or cells: SK-N-SH; details: 1 million cells, 60 minutes
[9] = test system: norepinephrine transporter (NET), uptake 1; assay: Cardiac imaging in NHPs pretreated with desipramine; type: in vivo, nonhuman primates (NHP); details: desipramine 0.5 mg/kg
Method: as §2, §3

[10] = Tissue biodistribution by tissue sampling in rats; type: in vivo
Method: as §2

[11] = biological target: T4, norepinephrine transporter (NET), uptake 1 (Oryctolagus cuniculus, UniProt G1TDF9); assay: Heart uptake in rabbits after uptake 1 blockade (desipramine) or 6-hydroxydopamine sympathetic denervation; type: in vivo; details: rabbits
T4 construct: from tissue; host or cells: rabbit heart, in vivo
Method: as §2, §3

[12] = Cardiac PET imaging in rabbit models of regional and systemic cardiac sympathetic denervation (CSD); type: in vivo, rabbits
Method: Rabbit models of regional and systemic CSD were used. To develop regional CSD, a median sternotomy was performed and phenol (89% in liquid) was pained on the anterior and posterior walls of the left ventricle. To develop systemic denervation the neurotoxin, 6-hydroxydopamine (25 mg/kg on day 1, 2, 7 and 8), was administered intravenously. Two weeks following these procedures, rabbits were imaged with imaging agent-1 (˜1.5 mCi, i.v.) using a microPET camera for 30 minutes.

[13] = 15-minute following administration
[14] = 60-minute following administration

T2 sequence (P23975 whole entry): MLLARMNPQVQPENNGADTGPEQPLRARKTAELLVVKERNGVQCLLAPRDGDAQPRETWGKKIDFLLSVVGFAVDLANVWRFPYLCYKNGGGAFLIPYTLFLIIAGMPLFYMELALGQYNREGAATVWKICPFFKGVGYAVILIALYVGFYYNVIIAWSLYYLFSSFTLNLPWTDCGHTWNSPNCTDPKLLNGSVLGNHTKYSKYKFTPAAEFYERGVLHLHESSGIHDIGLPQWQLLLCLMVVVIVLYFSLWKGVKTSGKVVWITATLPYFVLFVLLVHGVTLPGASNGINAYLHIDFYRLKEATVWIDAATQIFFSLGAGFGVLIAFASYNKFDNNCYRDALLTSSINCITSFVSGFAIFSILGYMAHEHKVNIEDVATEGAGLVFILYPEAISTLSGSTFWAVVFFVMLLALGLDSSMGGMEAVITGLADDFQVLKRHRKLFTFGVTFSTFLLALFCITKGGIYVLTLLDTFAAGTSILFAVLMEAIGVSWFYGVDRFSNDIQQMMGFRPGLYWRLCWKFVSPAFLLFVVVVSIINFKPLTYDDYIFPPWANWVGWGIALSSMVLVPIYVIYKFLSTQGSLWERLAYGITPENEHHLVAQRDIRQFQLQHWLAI
T3 sequence (P23975 whole entry): as above
T4 sequence (G1TDF9 1-617): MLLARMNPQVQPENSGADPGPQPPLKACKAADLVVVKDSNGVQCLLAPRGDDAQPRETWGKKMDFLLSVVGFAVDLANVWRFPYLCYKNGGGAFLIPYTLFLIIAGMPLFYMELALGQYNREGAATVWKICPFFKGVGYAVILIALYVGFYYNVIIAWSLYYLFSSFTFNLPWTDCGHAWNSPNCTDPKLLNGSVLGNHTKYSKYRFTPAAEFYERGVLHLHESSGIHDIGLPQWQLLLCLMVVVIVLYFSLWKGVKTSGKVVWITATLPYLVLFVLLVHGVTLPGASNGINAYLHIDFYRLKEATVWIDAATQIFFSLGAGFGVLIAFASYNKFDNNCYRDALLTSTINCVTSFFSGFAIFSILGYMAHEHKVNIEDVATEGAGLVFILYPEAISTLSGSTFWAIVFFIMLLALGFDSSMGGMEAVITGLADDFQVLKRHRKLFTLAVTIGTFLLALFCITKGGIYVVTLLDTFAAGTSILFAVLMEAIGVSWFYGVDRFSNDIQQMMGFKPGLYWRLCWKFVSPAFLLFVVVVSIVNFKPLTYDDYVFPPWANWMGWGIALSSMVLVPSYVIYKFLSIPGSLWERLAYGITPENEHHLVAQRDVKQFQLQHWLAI
T1 sequence (Q63380 1-617): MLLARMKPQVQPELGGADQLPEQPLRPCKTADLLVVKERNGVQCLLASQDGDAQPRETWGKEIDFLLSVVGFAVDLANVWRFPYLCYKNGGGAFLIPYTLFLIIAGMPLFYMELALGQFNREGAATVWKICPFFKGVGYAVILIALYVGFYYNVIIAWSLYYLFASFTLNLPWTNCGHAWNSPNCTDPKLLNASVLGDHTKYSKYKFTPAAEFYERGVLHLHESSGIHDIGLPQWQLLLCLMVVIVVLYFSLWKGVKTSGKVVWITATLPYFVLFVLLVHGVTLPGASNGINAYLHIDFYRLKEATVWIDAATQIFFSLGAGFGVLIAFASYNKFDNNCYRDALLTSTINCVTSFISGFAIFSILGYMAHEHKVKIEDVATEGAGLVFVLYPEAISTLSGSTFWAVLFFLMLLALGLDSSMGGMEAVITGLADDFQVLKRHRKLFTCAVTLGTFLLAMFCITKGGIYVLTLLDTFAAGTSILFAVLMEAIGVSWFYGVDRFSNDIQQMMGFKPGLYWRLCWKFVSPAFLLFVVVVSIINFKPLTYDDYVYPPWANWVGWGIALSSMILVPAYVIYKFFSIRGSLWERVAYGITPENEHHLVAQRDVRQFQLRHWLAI

## N=C(N)NCc1ccc(OCCC[18F])c(Br)c1 [imaging agent-1, 1-{3-Bromo-4-[3-[^18F]fluoropropoxy]benzyl}guanidine]
[1]
  Inhibition of cell uptake by blockade of NET (desipramine): 66±7%
[2]; [13]
  Heart uptake: 0.25±0.03 % ID/g
[2]; [14]
  Heart uptake: 0.28±0.03 % ID/g
[3]
  Inhibition of cell uptake by blockade of NET (desipramine): 91±1%
[4]; SH-SY5Y cells
  Vmax (uptake kinetics): 5.18±1.23 pmol/min/million cells
[4]; SH-SY5Y human neuroblastoma cell line
  Uptake in SH-SY5Y cells in presence of desipramine, a selective NET inhibitor: inhibited by desipramine
[5]; normal subjects n=6, ~220 MBq iv
  Clearance of radiotracer from blood: cleared quickly from the blood
[5]; post injection
  Time at which myocardial activity reached a plateau: ~60 min
  Time of peak of regional and global myocardial activity: ≤ 10 min
[5]; ~60 min post injection
  Myocardial uptake, Apical short axis slice: 11678±2148 Bq/ml
  Myocardial uptake, Base short axis slice: 11284±2844 Bq/ml
  Myocardial uptake, Mid short axis slice: 11898±2047 Bq/ml
  Regional myocardial uptake, Anterior sector: 11592±2474 Bq/ml
  Regional myocardial uptake, Inferior sector: 11818±1991 Bq/ml
  Regional myocardial uptake, Lateral sector: 11424±2439 Bq/ml
  Regional myocardial uptake, Septal sector: 11647±2829 Bq/ml
[6]; phenol RCSD rabbits, 2 weeks post surgery
  Innervated region (myocardial area with radioactivity ≥50% maximum): 12245±905 voxels
[6]; phenol RCSD rabbits, 12 weeks
  Innervated region (myocardial area with radioactivity ≥50% maximum): 16812±503 voxels
[6]; sham-denervated rabbits
  Innervated region (myocardial area with radioactivity ≥50% maximum): 20702±2190 voxels
[7]; rat, heart, other: injection, rats, control group of denervation
  tissue uptake at 60 min: 2.58 ± 0.76 %ID/g
[7]; rats, control of uptake 1 blockade
  Heart uptake: 1.47±0.22 % ID/g
[7]; rats, uptake 1 blocked (desipramine 10 mg/kg ip)
  Heart uptake: 1.41±0.07 % ID/g
[7]; sympathetic denervated rats (6-hydroxydopamine)
  Heart uptake: 2.18±0.39 % ID/g
[8]
  Cell uptake: 26±2%
[9]
  Decrease of radioactivity in the heart by desipramine pretreatment (cardiac imaging): 68%
[10]; [13]
  Heart uptake: 2.36±0.16 % ID/g
[10]; [14]
  Heart uptake: 2.17±0.12 % ID/g
[11]; 6-OHDA i.v.
  Decrease in heart uptake after sympathetic denervation with 6-hydroxydopamine: 79%
[11]; desipramine 1 mg/kg, 1 hour post dose
  Inhibition of heart uptake by desipramine (uptake 1 blockade): 68%
[12]; rabbits with systemic denervation (6-hydroxydopamine)
  Global reduction in heart uptake compared to control animals (image based quantification): ~80%
[12]; rabbits, phenol regional denervation
  Uptake in the treated regions after regional denervation: marked reduction
